What all share (assay): biochemical
Assay [1] deals with T1, panel of 374 wild-type kinases (Homo sapiens, UniProt P54762).
T1 construct: purchased Reaction Biology Corporation
T1 sequence (P54762 18-984): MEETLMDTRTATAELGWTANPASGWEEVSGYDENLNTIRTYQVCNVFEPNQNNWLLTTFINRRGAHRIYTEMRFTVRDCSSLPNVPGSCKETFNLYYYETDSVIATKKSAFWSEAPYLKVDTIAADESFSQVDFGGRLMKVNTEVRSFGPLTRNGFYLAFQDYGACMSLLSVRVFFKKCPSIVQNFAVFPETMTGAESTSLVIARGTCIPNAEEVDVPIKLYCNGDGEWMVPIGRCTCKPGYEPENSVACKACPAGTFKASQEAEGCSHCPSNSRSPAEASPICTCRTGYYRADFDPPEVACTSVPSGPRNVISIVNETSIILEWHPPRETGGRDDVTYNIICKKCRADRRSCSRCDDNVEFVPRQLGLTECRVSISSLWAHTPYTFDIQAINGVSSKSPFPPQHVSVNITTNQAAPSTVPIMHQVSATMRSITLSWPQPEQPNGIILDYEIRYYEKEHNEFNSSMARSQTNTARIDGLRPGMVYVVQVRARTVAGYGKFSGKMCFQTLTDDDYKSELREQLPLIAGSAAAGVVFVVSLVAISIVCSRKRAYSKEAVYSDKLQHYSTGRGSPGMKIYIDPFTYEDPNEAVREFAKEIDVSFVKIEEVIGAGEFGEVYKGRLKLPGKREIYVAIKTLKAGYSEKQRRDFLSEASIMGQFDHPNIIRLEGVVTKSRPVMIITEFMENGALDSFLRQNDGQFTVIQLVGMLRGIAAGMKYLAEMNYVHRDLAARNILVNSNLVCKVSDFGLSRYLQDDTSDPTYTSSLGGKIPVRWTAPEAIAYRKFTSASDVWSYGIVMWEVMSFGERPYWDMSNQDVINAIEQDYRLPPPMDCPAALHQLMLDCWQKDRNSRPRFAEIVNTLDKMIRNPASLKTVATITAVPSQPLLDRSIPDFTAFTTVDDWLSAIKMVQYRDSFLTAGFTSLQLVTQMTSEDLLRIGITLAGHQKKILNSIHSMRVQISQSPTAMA
Conditions: read-out: % Enzyme Activity (relative to DMSO controls), EPHB1.

Assay [2] has as its target T2, panel of 374 wild-type kinases (Homo sapiens, UniProt Q9Y6E0).
T2 construct: purchased Reaction Biology Corporation
Conditions: read-out: % Enzyme Activity (relative to DMSO controls), MST3/STK24.

Assay [3] concerns the target T3, panel of 374 wild-type kinases (Homo sapiens, UniProt Q92918).
T3 construct: purchased Reaction Biology Corporation
The settings on record: read-out: % Enzyme Activity (relative to DMSO controls), HPK1/MAP4K1.

For assay [4], the target named is T4, panel of 374 wild-type kinases (Homo sapiens, UniProt Q86Y07).
T4 construct: purchased Reaction Biology Corporation
Conditions: read-out: % Enzyme Activity (relative to DMSO controls), kinase VRK2.

Assay [5] concerns the target T5, panel of 374 wild-type kinases (Homo sapiens, UniProt Q13470).
T5 construct: purchased Reaction Biology Corporation
T5 sequence (Q13470 1-666): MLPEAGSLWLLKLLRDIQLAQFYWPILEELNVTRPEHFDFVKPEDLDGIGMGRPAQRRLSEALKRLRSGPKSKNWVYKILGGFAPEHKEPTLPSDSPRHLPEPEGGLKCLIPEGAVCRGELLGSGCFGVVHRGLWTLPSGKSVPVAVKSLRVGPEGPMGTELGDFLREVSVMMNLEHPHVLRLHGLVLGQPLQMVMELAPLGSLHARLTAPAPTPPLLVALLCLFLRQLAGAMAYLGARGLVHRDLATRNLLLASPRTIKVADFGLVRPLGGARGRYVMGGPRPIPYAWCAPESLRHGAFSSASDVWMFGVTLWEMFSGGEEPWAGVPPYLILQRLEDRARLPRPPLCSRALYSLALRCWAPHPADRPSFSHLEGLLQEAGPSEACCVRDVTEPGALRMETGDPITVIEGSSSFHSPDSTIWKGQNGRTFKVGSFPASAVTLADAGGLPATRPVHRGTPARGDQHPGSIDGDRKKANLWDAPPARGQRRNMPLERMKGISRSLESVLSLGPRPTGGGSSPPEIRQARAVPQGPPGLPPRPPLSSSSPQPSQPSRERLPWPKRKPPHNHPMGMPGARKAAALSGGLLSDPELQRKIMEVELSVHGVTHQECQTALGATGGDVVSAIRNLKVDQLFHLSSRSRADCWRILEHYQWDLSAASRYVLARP
The settings on record: read-out: % Enzyme Activity (relative to DMSO controls), kinase TNK1.

Assay [6] has as its target T6, panel of 374 wild-type kinases (Homo sapiens, UniProt Q52WX2).
T6 construct: purchased Reaction Biology Corporation
Conditions: read-out: % Enzyme Activity (relative to DMSO controls), kinase SBK1.

Assay [7] deals with T7, panel of 374 wild-type kinases (Homo sapiens, UniProt Q05513).
T7 construct: purchased Reaction Biology Corporation
T7 sequence (Q05513 1-592): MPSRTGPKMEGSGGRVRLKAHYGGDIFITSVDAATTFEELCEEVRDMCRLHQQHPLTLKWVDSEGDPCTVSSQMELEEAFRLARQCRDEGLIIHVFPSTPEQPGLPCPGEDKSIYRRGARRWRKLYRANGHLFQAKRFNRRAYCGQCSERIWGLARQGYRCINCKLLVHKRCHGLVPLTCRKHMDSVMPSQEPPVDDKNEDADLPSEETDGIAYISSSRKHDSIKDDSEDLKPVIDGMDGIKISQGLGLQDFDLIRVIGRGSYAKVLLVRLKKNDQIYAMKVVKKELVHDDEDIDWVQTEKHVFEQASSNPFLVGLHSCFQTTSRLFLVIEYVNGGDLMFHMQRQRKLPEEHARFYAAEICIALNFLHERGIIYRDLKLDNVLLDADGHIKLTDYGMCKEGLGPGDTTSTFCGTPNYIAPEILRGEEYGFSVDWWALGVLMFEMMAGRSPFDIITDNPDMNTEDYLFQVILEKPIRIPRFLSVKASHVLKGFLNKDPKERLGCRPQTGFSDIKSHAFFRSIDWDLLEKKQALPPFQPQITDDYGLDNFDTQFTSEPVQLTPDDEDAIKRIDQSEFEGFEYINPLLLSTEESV
Conditions: read-out: % Enzyme Activity (relative to DMSO controls), kinase PKCzeta.

Assay [8] addresses T8, panel of 374 wild-type kinases (Homo sapiens, UniProt Q04912).
T8 construct: purchased Reaction Biology Corporation
Conditions: read-out: % Enzyme Activity (relative to DMSO controls), kinase RON/MST1R.

T4 sequence (Q86Y07 whole entry): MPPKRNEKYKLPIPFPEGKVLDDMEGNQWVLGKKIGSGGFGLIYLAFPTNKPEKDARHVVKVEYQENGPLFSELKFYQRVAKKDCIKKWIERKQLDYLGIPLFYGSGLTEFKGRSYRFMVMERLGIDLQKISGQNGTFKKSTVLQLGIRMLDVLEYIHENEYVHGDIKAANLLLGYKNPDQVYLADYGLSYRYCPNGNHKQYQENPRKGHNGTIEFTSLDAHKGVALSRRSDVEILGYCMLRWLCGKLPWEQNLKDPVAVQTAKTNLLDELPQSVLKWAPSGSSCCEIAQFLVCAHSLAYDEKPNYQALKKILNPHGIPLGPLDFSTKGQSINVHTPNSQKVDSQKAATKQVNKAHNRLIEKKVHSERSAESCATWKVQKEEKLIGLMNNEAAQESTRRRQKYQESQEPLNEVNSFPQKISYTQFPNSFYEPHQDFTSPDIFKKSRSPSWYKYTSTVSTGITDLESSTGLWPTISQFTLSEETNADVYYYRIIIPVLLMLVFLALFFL
T6 sequence (Q52WX2 whole entry): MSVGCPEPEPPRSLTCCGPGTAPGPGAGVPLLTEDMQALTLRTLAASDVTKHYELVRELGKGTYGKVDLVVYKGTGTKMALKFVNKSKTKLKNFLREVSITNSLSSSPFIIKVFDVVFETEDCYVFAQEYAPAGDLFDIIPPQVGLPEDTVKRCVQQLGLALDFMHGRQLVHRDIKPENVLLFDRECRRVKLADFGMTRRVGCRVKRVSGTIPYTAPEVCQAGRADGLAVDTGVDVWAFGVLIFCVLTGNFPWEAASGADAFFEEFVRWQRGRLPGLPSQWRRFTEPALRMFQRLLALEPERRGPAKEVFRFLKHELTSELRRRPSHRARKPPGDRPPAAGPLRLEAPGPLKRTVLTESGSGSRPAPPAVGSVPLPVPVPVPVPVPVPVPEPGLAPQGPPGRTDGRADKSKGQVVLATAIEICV
T3 sequence (Q92918 whole entry): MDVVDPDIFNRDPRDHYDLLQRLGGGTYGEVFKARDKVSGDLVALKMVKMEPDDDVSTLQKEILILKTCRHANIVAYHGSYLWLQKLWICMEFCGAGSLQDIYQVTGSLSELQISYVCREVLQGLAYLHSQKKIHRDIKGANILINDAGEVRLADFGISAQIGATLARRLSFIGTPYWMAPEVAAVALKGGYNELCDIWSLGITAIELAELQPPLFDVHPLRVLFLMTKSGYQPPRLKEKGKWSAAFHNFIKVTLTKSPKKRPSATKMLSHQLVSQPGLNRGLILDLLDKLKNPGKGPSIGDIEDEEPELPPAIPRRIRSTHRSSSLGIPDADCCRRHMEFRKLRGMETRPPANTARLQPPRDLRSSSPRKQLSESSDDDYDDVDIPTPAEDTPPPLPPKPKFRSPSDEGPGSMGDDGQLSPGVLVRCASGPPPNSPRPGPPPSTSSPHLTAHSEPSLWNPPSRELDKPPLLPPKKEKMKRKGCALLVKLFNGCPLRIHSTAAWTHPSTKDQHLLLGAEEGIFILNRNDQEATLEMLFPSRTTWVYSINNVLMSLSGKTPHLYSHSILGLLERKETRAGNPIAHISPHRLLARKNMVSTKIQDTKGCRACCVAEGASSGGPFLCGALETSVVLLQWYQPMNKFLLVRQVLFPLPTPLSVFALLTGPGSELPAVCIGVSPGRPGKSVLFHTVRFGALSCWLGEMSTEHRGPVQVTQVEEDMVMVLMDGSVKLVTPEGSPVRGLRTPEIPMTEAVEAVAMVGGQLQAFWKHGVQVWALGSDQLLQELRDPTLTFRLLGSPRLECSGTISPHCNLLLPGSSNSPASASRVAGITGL
T2 sequence (Q9Y6E0 whole entry): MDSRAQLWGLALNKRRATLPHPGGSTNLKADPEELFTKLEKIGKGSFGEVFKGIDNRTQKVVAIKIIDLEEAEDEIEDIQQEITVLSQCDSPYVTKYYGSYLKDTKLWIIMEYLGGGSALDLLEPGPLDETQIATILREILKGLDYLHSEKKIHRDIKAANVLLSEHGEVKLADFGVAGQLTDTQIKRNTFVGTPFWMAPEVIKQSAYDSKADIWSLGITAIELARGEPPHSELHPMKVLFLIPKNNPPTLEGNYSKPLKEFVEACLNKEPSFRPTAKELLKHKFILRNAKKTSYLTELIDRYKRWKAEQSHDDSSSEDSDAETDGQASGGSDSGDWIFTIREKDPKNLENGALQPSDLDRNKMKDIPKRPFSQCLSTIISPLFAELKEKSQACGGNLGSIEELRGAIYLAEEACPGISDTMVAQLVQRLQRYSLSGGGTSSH
T8 sequence (Q04912 25-1400): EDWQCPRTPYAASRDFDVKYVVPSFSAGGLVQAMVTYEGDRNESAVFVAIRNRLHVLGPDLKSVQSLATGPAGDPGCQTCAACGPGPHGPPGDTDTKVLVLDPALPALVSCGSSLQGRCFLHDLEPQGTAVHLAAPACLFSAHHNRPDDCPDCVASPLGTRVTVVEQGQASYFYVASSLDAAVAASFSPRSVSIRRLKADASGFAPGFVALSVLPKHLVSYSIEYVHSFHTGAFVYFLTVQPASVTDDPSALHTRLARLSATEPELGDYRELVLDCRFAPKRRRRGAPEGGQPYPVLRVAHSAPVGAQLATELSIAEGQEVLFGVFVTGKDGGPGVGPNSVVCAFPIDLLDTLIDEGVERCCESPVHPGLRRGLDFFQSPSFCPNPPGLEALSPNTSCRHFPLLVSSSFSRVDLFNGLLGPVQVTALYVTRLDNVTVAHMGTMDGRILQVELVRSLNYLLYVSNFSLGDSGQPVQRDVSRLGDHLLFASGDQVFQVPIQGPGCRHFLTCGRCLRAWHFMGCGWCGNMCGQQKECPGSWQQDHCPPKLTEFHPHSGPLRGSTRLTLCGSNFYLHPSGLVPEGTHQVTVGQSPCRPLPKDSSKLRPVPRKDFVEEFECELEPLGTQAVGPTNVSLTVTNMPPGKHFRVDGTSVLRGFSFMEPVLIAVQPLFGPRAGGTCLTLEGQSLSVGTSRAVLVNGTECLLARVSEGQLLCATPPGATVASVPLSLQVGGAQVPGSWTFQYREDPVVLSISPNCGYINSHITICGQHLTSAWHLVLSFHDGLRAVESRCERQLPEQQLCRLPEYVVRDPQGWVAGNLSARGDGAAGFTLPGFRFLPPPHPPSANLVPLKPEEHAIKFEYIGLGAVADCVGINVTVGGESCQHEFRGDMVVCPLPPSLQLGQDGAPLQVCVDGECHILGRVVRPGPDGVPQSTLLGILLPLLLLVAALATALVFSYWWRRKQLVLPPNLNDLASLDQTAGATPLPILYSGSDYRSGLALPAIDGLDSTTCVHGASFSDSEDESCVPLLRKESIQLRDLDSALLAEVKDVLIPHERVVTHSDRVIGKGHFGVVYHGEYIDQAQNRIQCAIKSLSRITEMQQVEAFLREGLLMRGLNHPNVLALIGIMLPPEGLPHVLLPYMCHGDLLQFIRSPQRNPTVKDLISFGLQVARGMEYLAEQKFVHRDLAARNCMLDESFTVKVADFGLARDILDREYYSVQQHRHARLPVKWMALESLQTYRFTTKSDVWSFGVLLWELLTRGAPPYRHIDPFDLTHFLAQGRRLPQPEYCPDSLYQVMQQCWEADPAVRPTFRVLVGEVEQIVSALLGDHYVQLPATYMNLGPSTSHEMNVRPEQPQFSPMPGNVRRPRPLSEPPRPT

For the compound `Cc1sc(C(=O)NC2COC2)cc1-n1cc(NC(=O)Nc2c(F)cccc2Cl)cn1` [Compound 27, 4-(4-(3-(2-chloro-6-fluorophenyl)ureido)-1H-pyrazol-1-yl)-5-methyl-N-(oxetan-3-yl)thiophene-2-carboxamide], the remaining activity at 10 µM in assay [1] (10 uM) worked out at 100%; in assay [2] (10 uM) it was 67.3%; in assay [3] (10 uM) it was 99.2%; in assay [4] (10 uM) it was 102%; in assay [5] (10 uM), 105%; in assay [6] (10 uM), 87.5%. The remaining activity at 10 µM amounted to 104% in assay [7] (10 uM) and 96.9% in assay [8] (10 uM).

In the case of `O=C(Nc1cnn(-c2csc(C(=O)NC3COC3)c2)c1)Nc1c(F)cccc1Cl` [Compound 25, 4-(4-(3-(2-chloro-6-fluorophenyl)ureido)-1H-pyrazol-1-yl)-N-(oxetan-3-yl)thiophene-2-carboxamide], the remaining activity at 5 µM in assay [1] came out at 96.1%; in assay [2], 81.6%; in assay [3] it was 92.7%; in assay [4] it was 102%; in assay [5] it was 91.5%; in assay [6], 97.7%. Besides, the remaining activity at 5 µM in assay [7] came out at 93.6%; in assay [8] it was 100%.

With `O=C(Nc1cnn(-c2csc(C(=O)NC3COC3)c2)c1)Nc1ccccc1Cl` [Compound 17, 4-(4-(3-(2-chlorophenyl)ureido)-1H-pyrazol-1-yl)-N-(oxetan-3-yl)thiophene-2-carboxamide], the remaining activity at 5 µM came out at 100% in assay [1]; 113% in assay [2]; 132% in assay [3]; 103% in assay [4]; 100% in assay [5]; 99.1% in assay [6]. The remaining activity at 5 µM was 105% in assay [7] and 108% in assay [8].
